# Measured values from article PMC10865806, “Structural insights into the molecular mechanism of high-level ceftazidime–avibactam resistance conferred by CMY-185” (mBio, 2024).
# What was measured:
# Format in all cases: biochemical, Escherichia coli
# [1] = biological target: T1, CMY-2 variant Q120K_N346Y (Klebsiella pneumoniae, UniProt Q48434, N366Y/Q140K); experiment: Steady-state hydrolysis kinetics
# T1 construct: all CMY-2 variant genes encoding the mature enzyme without a signal peptide were cloned into the protein expression plasmid vector pET-30b; made in house; host or cells: E. coli BL21 (DE3), pET-30b
# Excerpt: (§1) We tested the enzymes, CMY-2, two single mutants V211S (CMY-42) and N346Y, three double mutants A114E_N346Y, Q120K_N346Y, and V211S_N346Y, and the quadruplet mutant CMY-185 to elucidate the impact on the kinetic properties resulting from the four amino acid substitutions present in CMY-185 compared with CMY-2 ([8]). The steady-state kinetic parameters kcat and Km (or Ki app) for nitrocefin, cephalothin, ceftazidime, and cefiderocol and the inhibition parameters Ki app, k2/K, k−2, and koff for avibactam are summarized in Table 1. During the hydrolysis of nitrocefin, we observed the reduction of the initial velocity at concentrations above 50 µM particularly for the CMY-2 variants harboring the N346Y substitution. As this could have represented substrate inhibition, we then determined the kinetics parameters for nitrocefin using the Haldane equation ([16]). […] In addition, during the hydrolysis of cefiderocol by CMY-185, the initial velocities at a concentration range of 3.7–59.4 µM were similar.
# (§2) The steady-state kinetics were carried out on a UV-Visible spectrometer (UV-1280, Shimadzu, Japan) in PBS pH 7.2 at 25°C with a constant amount of enzyme and varying concentrations of the substrates. We tested nitrocefin, cephalothin, ceftazidime, and cefiderocol as the substrates and avibactam as the inhibitor. The steady-state kinetics parameters Km and kcat were determined with the Michaelis-Menten equation. For poorly hydrolyzed substrates, the Km value was assumed to be the competitive inhibition constant (Ki app) value according to previous studies ([17], [19]). Inhibition parameter values of Ki app, k2/K, k−2, and koff for avibactam were determined using a method as described previously ([33]). Cephalothin was used as the reporter substrate for competitive inhibition experiments, and its concentration was fixed at 100 µM. The enzyme concentration was 1–10 nM. Inverse steady-state initial velocities were plotted against the concentration of the competitive inhibitor agents, such as ceftazidime, cefiderocol, and avibactam. The data were analyzed by linear regression analysis of the Dixon plot, and Ki app (observed) was determined by dividing the y-intercept value by the slope of the line. It was then corrected to account for the affinity of cephalothin for each enzyme using the Equation (1): […]
# [2] = biological target: T2, CMY-185 (Klebsiella pneumoniae, UniProt Q48434, A134E/N366Y/Q140K/V231S); experiment: Steady-state hydrolysis kinetics
# T2 construct: all CMY-2 variant genes encoding the mature enzyme without a signal peptide were cloned into the protein expression plasmid vector pET-30b; made in house; host or cells: E. coli BL21 (DE3), pET-30b
# Excerpt: as §1, §2
# [3] = biological target: T3, V211S (CMY-42) (Klebsiella pneumoniae, UniProt Q48434, V231S); experiment: Steady-state hydrolysis kinetics
# T3 construct: all CMY-2 variant genes encoding the mature enzyme without a signal peptide were cloned into the protein expression plasmid vector pET-30b; made in house; host or cells: E. coli BL21 (DE3), pET-30b
# Excerpt: as §1, §2
# [4] = biological target: T4, CMY-2 variant V211S_N346Y (Klebsiella pneumoniae, UniProt Q48434, N366Y/V231S); experiment: Steady-state hydrolysis kinetics; conditions: V211S_N346Y
# T4 construct: all CMY-2 variant genes encoding the mature enzyme without a signal peptide were cloned into the protein expression plasmid vector pET-30b; made in house; host or cells: E. coli BL21 (DE3), pET-30b
# Excerpt: as §1, §2
# [5] = biological target: T5, CMY-2 (Klebsiella pneumoniae, UniProt Q48434); experiment: Steady-state hydrolysis kinetics; conditions: substrate inhibition, Haldane equation
# T5 construct: all CMY-2 variant genes encoding the mature enzyme without a signal peptide were cloned into the protein expression plasmid vector pET-30b; made in house; host or cells: E. coli BL21 (DE3), pET-30b
# Excerpt: as §1
# as §2, with “The enzyme concentration was 1–10 nM.” left out
# [6] = biological target: T6, CMY-2 variant A114E_N346Y (Klebsiella pneumoniae, UniProt Q48434, A134E/N366Y); experiment: Steady-state hydrolysis kinetics
# T6 construct: all CMY-2 variant genes encoding the mature enzyme without a signal peptide were cloned into the protein expression plasmid vector pET-30b; made in house; host or cells: E. coli BL21 (DE3), pET-30b
# Excerpt: as §1
# as §2, with “The enzyme concentration was 1–10 nM.” left out
# [7] = biological target: T7, CMY-2 variant N346Y (Klebsiella pneumoniae, UniProt Q48434, N366Y); experiment: Steady-state hydrolysis kinetics
# T7 construct: all CMY-2 variant genes encoding the mature enzyme without a signal peptide were cloned into the protein expression plasmid vector pET-30b; made in house; host or cells: E. coli BL21 (DE3), pET-30b
# Excerpt: as §1
# as §2, with “The enzyme concentration was 1–10 nM.” left out
# [8] = biological target: T1, CMY-2 variant Q120K_N346Y; experiment: Competitive inhibition of cephalothin hydrolysis and avibactam inhibition kinetics
# Excerpt: as §1
# (§3) The steady-state kinetics were carried out on a UV-Visible spectrometer (UV-1280, Shimadzu, Japan) in PBS pH 7.2 at 25°C with a constant amount of enzyme and varying concentrations of the substrates. We tested nitrocefin, cephalothin, ceftazidime, and cefiderocol as the substrates and avibactam as the inhibitor. The steady-state kinetics parameters Km and kcat were determined with the Michaelis-Menten equation. For poorly hydrolyzed substrates, the Km value was assumed to be the competitive inhibition constant (Ki app) value according to previous studies ([17], [19]). Inhibition parameter values of Ki app, k2/K, k−2, and koff for avibactam were determined using a method as described previously ([33]). Cephalothin was used as the reporter substrate for competitive inhibition experiments, and its concentration was fixed at 100 µM. The enzyme concentration was 1–10 nM. Inverse steady-state initial velocities were plotted against the concentration of the competitive inhibitor agents, such as ceftazidime, cefiderocol, and avibactam. The data were analyzed by linear regression analysis of the Dixon plot, and Ki app (observed) was determined by dividing the y-intercept value by the slope of the line. It was then corrected to account for the affinity of cephalothin for each enzyme using the Equation (1):
# (§4) (1) Ki app=Ki app (observed)/{1+[S]/Km (cephalothin)}
# (§5) where [S] represents the concentration of the reporter substrate cephalothin, and Km (cephalothin) is the Km value of cephalothin for each enzyme.
# (§6) The koff value was determined using a jump dilution assay. The enzyme and avibactam were mixed and preincubated at 25°C for 5 min. The concentration of avibactam depended on the enzyme and concentrations 10-fold higher from each Ki app (observed) value were adopted, which were determined based on the corrected competitive inhibition constants Ki app. Preincubated enzyme-avibactam mixture was then diluted 2,000-fold in the 100 µM cephalothin solution, and the hydrolysis of cephalothin was measured. Three independent measurements were performed for each enzyme and substrate or inhibitor combination. Curve fittings using linear or non-linear regression were performed with R 4.1.3 (R Core Team, 2022).
# [9] = biological target: T2, CMY-185; experiment: as above
# Excerpt: as §1, §3, §4, §5, §6
# [10] = biological target: T3, V211S (CMY-42); experiment: as above
# Excerpt: as §1, §3, §4, §5, §6
# [11] = biological target: T5, CMY-2; experiment: as above
# Excerpt: as §1, §3, §4, §5, §6
# [12] = biological target: T4, CMY-2 variant V211S_N346Y; experiment: as above
# Excerpt: as §1, §3, §4, §5, §6
# [13] = biological target: T6, CMY-2 variant A114E_N346Y; experiment: as above
# Excerpt: as §1, §3, §4, §5, §6
# [14] = biological target: T7, CMY-2 variant N346Y; experiment: as above
# Excerpt: as §1, §3, §4, §5, §6
# [15] = substrate inhibition, Haldane equation
# [16] = reporter substrate cephalothin 100 µM, Dixon plot, read-out: Ki app
compound,measurement,setting,value
"O=C(Cc1cccs1)N[C@@H]1C(=O)N2C(C(=O)O)=C(/C=C/c3ccc([N+](=O)[O-])cc3[N+](=O)[O-])CS[C@H]12 [Nitrocefin, nitrocefin]",Km,"[1]; PBS pH 7.2, 25°C",50 ± 40 µM
same,kcat,"[1]; PBS pH 7.2, 25°C",120 ± 90 s⁻¹
same,Ki,[1]; [15],14 ± 12 µM
same,Km,"[2]; PBS pH 7.2, 25°C",39 ± 24 µM
same,kcat,"[2]; PBS pH 7.2, 25°C",17 ± 9 s⁻¹
same,Ki,[2]; [15],18 ± 13 µM
same,Km,"[3]; PBS pH 7.2, 25°C",29 ± 12 µM
same,kcat,"[3]; PBS pH 7.2, 25°C",320 ± 102 s⁻¹
same,Ki,[3]; [15],130 µM
same,Km,"[4]; PBS pH 7.2, 25°C",35 ± 10 µM
same,kcat,"[4]; PBS pH 7.2, 25°C",85 ± 18 s⁻¹
same,Ki,[4]; [15],100 µM
same,Ki,[5],160 µM
same,Km,"[6]; PBS pH 7.2, 25°C",16 ± 4 µM
same,kcat,"[6]; PBS pH 7.2, 25°C",57 ± 10 s⁻¹
same,Ki,[6]; [15],68 ± 37 µM
same,Km,"[7]; PBS pH 7.2, 25°C",25 ± 3 µM
same,kcat,"[7]; PBS pH 7.2, 25°C",61 ± 5 s⁻¹
same,Ki,[7]; [15],87 ± 25 µM
"NC(=O)[C@@H]1CC[C@@H]2CN1C(=O)N2OS(=O)(=O)O [Avibactam, avibactam]",fold higher Ki app,[8]; Q120K_N346Y compared to CMY-2 and V211S,"10,000 fold"
same,fold higher Ki app,[8]; Q120K_N346Y compared to N346Y,10 fold
same,k−2,"[8]; Q120K_N346Y, decarbamoylation rate constant",0.002 ± 0.0001 s⁻¹
same,koff,"[8]; Q120K_N346Y, jump dilution assay",4e-06 s⁻¹
same,Ki,"[8]; Q120K_N346Y, reporter substrate cephalothin 100 µM, Dixon plot, read-out: Ki app",590 µM
same,k−2,"[9]; CMY-185, decarbamoylation rate constant",0.0007 ± 5e-05 s⁻¹
same,koff,"[9]; CMY-185, jump dilution assay",4.8e-07 s⁻¹
same,Ki,"[9]; CMY-185, reporter substrate cephalothin 100 µM, Dixon plot, read-out: Ki app",1300 µM
same,fold higher Ki app,[9]; CMY-185 compared to CMY-2 and V211S,"20,000 fold"
same,k−2,[10]; decarbamoylation rate constant,0.00015 ± 2e-05 s⁻¹
same,koff,[10]; jump dilution assay,6e-05 s⁻¹
same,Ki,[10]; [16],0.034 µM
same,k−2,[11]; decarbamoylation rate constant,0.00012 ± 2e-05 s⁻¹
same,koff,[11]; jump dilution assay,7.3e-05 s⁻¹
same,Ki,[11]; [16],0.063 µM
same,kinact/KI,"[11]; second-order carbamoylation rate constant, read-out: k2/K",28000 M⁻¹ s⁻¹
same,k−2,[12]; decarbamoylation rate constant,0.00044 ± 0.00021 s⁻¹
same,koff,[12]; jump dilution assay,2.4e-06 s⁻¹
same,Ki,[12]; [16],14 ± 4 µM
same,k−2,[13]; decarbamoylation rate constant,0.00011 ± 0 s⁻¹
same,koff,[13]; jump dilution assay,9e-07 s⁻¹
same,Ki,[13]; [16],80 ± 9 µM
same,fold higher Ki app,[14]; N346Y compared to CMY-2 and V211S,"1,000 fold"
same,k−2,"[14]; N346Y, decarbamoylation rate constant",1e-05 ± 0.00016 s⁻¹
same,koff,"[14]; N346Y, jump dilution assay",2.6e-06 s⁻¹
same,Ki,"[14]; N346Y, reporter substrate cephalothin 100 µM, Dixon plot, read-out: Ki app",41 ± 6 µM
